Common to all, as to format: biochemical
In experiment [1] the target is T1, BGL-2T* (Talaromyces amestolkiae, UniProt A0A186NAE7).
T1 construct: gene bgl2; recombinant truncated form lacking linker and CBD; stop codon in retained third intron; pPIC9, Pichia pastoris KM71, secreted; monomer
Description: glucose release (Glucose-TR kit), Lineweaver-Burk. As to conditions: 100 mM sodium acetate pH 4, optimal temperature (70 °C), BSA; read-out: K m (mM) / BGL-2T*. An excerpt:
glucose release (Glucose-TR kit), Lineweaver-Burk on BGL-2T*

The target of experiment [2] is T1, BGL-2T*. Description: o-nitrophenol release, Lineweaver-Burk. As to conditions: acetate buffer, optimal pH (3-4) and temperature (70 °C), BSA; read-out: K m (mM) / BGL-2T*. An excerpt: o-nitrophenol release, Lineweaver-Burk on BGL-2T*
For experiment [3], the target named is T1, BGL-2T*. Description: p-nitrophenol release at […] nm, Lineweaver-Burk. The following applies: acetate buffer, optimal pH (3-4) and temperature (70 °C), BSA; read-out: K m (mM) / BGL-2T*.

The values that follow come from publication PMC5674860, “A novel, highly efficient β-glucosidase with a cellulose-binding domain: characterization and properties of native and recombinant proteins” (Biotechnology for Biofuels, 2017).

T1 sequence (A0A186NAE7 1-700 limits assumed): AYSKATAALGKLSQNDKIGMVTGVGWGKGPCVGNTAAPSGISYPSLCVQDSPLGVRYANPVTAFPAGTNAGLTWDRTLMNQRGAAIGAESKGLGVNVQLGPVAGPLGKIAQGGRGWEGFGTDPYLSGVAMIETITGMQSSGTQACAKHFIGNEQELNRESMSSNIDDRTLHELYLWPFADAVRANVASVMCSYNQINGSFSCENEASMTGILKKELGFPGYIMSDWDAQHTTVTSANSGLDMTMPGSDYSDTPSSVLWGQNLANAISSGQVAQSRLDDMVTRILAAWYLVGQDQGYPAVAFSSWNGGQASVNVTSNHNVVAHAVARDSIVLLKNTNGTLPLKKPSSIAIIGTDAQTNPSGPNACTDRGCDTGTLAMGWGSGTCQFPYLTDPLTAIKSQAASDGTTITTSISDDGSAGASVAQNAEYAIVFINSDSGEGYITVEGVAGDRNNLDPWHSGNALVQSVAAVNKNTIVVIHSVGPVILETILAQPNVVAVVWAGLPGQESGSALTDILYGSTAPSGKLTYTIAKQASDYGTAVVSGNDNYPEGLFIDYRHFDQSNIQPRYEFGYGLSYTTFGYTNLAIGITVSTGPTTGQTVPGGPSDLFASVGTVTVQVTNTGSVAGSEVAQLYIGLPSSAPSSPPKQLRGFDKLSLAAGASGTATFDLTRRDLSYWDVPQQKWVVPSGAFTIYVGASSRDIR

Consider `OC[C@H]1O[C@@H](O[C@H]2[C@H](O)[C@@H](O)[C@H](O[C@H]3[C@H](O)[C@@H](O)C(O)O[C@@H]3CO)O[C@@H]2CO)[C@H](O)[C@@H](O)[C@@H]1O` (some centres unmarked) [Cellotriose], for which the Km at BGL-2T* [1] turned out to be 1.42 ± 0.06 mM.
With `O=[N+]([O-])c1ccccc1O[C@@H]1O[C@H](CO)[C@@H](O)[C@H](O)[C@H]1O` [oNPG, o-nitrophenyl-β-D-glucopyranoside], the Km at BGL-2T* [2] came to 0.67 ± 0.04 mM.
With `O=[N+]([O-])c1ccc(O[C@@H]2O[C@H](CO)[C@@H](O)[C@H](O)[C@H]2O)cc1` [pNPG, p-nitrophenyl-β-D-glucopyranoside], at BGL-2T* [3], the Km came out at 0.34 ± 0.02 mM.
In the case of `OC[C@H]1O[C@@H](O[C@H]2[C@H](O)[C@@H](O)[C@H](O[C@H]3[C@H](O)[C@@H](O)[C@H](O[C@H]4[C@H](O)[C@@H](O)C(O)O[C@@H]4CO)O[C@@H]3CO)O[C@@H]2CO)[C@H](O)[C@@H](O)[C@@H]1O` (some centres unmarked) [Cellotetraose], the Km on BGL-2T* [1] stood at 0.49 ± 0.03 mM.
For the compound `OC[C@H]1O[C@@H](O[C@H]2[C@H](O)[C@@H](O)[C@H](O[C@H]3[C@H](O)[C@@H](O)[C@H](O[C@H]4[C@H](O)[C@@H](O)[C@H](O[C@H]5[C@H](O)[C@@H](O)C(O)O[C@@H]5CO)O[C@@H]4CO)O[C@@H]3CO)O[C@@H]2CO)[C@H](O)[C@@H](O)[C@@H]1O` (some centres unmarked) [Cellopentaose], the Km on BGL-2T* [1] was determined as 0.68 ± 0.01 mM.
